Structures are written as SMILES.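 These data come from cells grown in 96-well plates and exposed to compound for 48 hours at five concentrations. Here, GI50 denotes the concentration required for 50% inhibition of growth. TGI marks complete inhibition of growth.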

Some test systems named below: UO-31 renal; 786-0 renal; MOLT-4 leukemia; MDA-MB-435; HOP-62 NSCLC; DU-145 prostate; SN12C renal; RPMI-8226 leukemia; NCI-H522 lung; OVCAR-4 ovarian.
What all share (experiment): NCI-60 cell line screen, 48 h

As for `COc1ccc(Cn2c3c(c4c(O)cccc42)C(=O)c2ccccc2-3)cc1`, the GI50 was 13.8 µM in the experiment with UO-31 renal; 4.02 µM in the experiment on 786-0 renal; 15.8 µM with MOLT-4 leukemia; 13.3 µM in the experiment on MDA-MB-435; 4.39 µM in the experiment with HOP-62 NSCLC; 12.5 µM in the experiment on DU-145 prostate. Further, the GI50 in the experiment with SN12C renal is 15.6 µM; with RPMI-8226 leukemia, 11.8 µM; in the experiment with NCI-H522 lung it was 12.3 µM. The TGI came out at 67.7 µM in the experiment on UO-31 renal; 16.7 µM in the experiment with 786-0 renal; 49.3 µM in the experiment with MOLT-4 leukemia; 30.8 µM in the experiment with MDA-MB-435; 14.9 µM in the experiment with HOP-62 NSCLC; 24.9 µM in the experiment on DU-145 prostate. In addition, the values for the TGI in the experiment on SN12C renal, in the experiment with RPMI-8226 leukemia and with NCI-H522 lung were 29 µM, 33.9 µM and 93.1 µM, respectively.

On to `O=C1c2c(O)cccc2C(C(=O)CCCC(=O)C2c3cccc(O)c3C(=O)c3c(O)cccc32)c2cccc(O)c21`, for which the TGI was 1.08 µM in the experiment on UO-31 renal; 9.72 µM in the experiment with 786-0 renal; 17.5 µM with MOLT-4 leukemia; 2.5 µM with MDA-MB-435; 0.82 µM in the experiment with OVCAR-4 ovarian; 2.09 µM in the experiment on HOP-62 NSCLC. In addition, the TGI was 2.02 µM in the experiment with DU-145 prostate, 12.2 µM in the experiment with SN12C renal and 0.752 µM with RPMI-8226 leukemia.

Take `NC(N)=N/N=C(/c1ccccc1)c1ccc(O)cc1O`: the TGI with UO-31 renal was over 100 µM; in the experiment with 786-0 renal it was 96.4 µM; in the experiment with MDA-MB-435, over 100 µM; in the experiment with OVCAR-4 ovarian, over 100 µM; with HOP-62 NSCLC it was over 100 µM; in the experiment on DU-145 prostate it was over 100 µM. For the same molecule, the TGI worked out at 91 µM in the experiment with SN12C renal, 79.8 µM in the experiment with RPMI-8226 leukemia and 34.5 µM with NCI-H522 lung.

Regarding `Oc1oc(-c2ccccc2)nc1/C=C1/C=NN=N1`, the TGI in the experiment with UO-31 renal, in the experiment with 786-0 renal, with MOLT-4 leukemia, with MDA-MB-435, with OVCAR-4 ovarian and with HOP-62 NSCLC was over 100 µM in each case. The TGI in the experiment with DU-145 prostate, in the experiment on SN12C renal and with RPMI-8226 leukemia was over 100 µM throughout.

In the case of `CC(C)[C@H](O)C(=O)N[C@H]1Cc2ccc3c(c2)[C@]24C5=C(N=C(O5)[C@H](C(C)C)NC1=O)c1nc(Cl)c(o1)-c1c(Cl)[nH]c5cccc(c15)-c1cccc2c1N[C@H]4O3`, the TGI in the experiment on UO-31 renal was over 10 µM; with 786-0 renal, 2.77 µM; in the experiment with MOLT-4 leukemia, over 10 µM; in the experiment with OVCAR-4 ovarian it was over 10 µM; in the experiment with HOP-62 NSCLC, over 10 µM; in the experiment with DU-145 prostate, 0.748 µM. In the experiment on NCI-H522 lung, this molecule had a TGI of 0.00562 µM. The GI50 is 0.00279 µM with 786-0 renal and under 0.001 µM with DU-145 prostate.

Consider `C=C(C)C(=O)N1c2ccc(OC)cc2CC1C(=O)OCC` (stereo not given), for which the TGI in the experiment on UO-31 renal, with 786-0 renal, in the experiment on MOLT-4 leukemia, with OVCAR-4 ovarian, in the experiment on HOP-62 NSCLC and in the experiment with DU-145 prostate was over 100 µM throughout. Moreover, the TGI in the experiment on SN12C renal and with NCI-H522 lung was over 100 µM each time.

On to `Cc1cc(Cl)ccc1Nc1nc(C(F)(F)F)ccc1C(=O)N/N=C/c1ccc(N(C)C)cc1`, for which the GI50 in the experiment with UO-31 renal is 2.97 µM; with 786-0 renal, 0.997 µM; in the experiment on MOLT-4 leukemia, 2.22 µM; with MDA-MB-435, 4.02 µM; with HOP-62 NSCLC it was 2.38 µM; in the experiment with DU-145 prostate, 0.915 µM. Besides, the figures for the GI50 in the experiment on SN12C renal, in the experiment with RPMI-8226 leukemia and with NCI-H522 lung were 3.99 µM, 2.94 µM and 3.07 µM, respectively. Further, the TGI with UO-31 renal is over 100 µM; with 786-0 renal it was over 100 µM; in the experiment on MOLT-4 leukemia, over 100 µM; with MDA-MB-435, over 100 µM; in the experiment with HOP-62 NSCLC, over 100 µM; in the experiment on DU-145 prostate, 8.86 µM. Also, the TGI with SN12C renal, in the experiment with RPMI-8226 leukemia and in the experiment with NCI-H522 lung was over 100 µM in each case.

Consider `NCCCn1c2c(c3ccc([N+](=O)[O-])cc3c1=O)C(=O)c1cc(Cl)ccc1-2`, for which the GI50 with UO-31 renal, in the experiment on 786-0 renal, in the experiment with MOLT-4 leukemia, with HOP-62 NSCLC, in the experiment on DU-145 prostate and in the experiment with SN12C renal was under 0.01 µM each time. For the same molecule, the GI50 in the experiment on RPMI-8226 leukemia was under 0.01 µM. The TGI was 0.122 µM in the experiment on UO-31 renal; 0.0369 µM with 786-0 renal; under 0.0114 µM in the experiment on MOLT-4 leukemia; 0.123 µM in the experiment with HOP-62 NSCLC; 0.115 µM with DU-145 prostate; 0.146 µM with SN12C renal. For the same molecule, in the experiment with RPMI-8226 leukemia, the TGI worked out at 0.0367 µM.

In the case of `COc1cccc2cc(N(C)c3nc(C)nc4ccsc34)ccc12`, the GI50 with UO-31 renal was under 0.01 µM; in the experiment on 786-0 renal, under 0.01 µM; with MOLT-4 leukemia, under 0.01 µM; in the experiment with OVCAR-4 ovarian it was under 0.0266 µM; with DU-145 prostate, under 0.01 µM; in the experiment on SN12C renal it was under 0.01 µM. The GI50 in the experiment on RPMI-8226 leukemia and with NCI-H522 lung was under 0.01 µM throughout. For the same molecule, the TGI in the experiment with UO-31 renal is 12.5 µM; in the experiment on 786-0 renal, 12.3 µM; with MOLT-4 leukemia it was 29.7 µM; in the experiment with OVCAR-4 ovarian, 19.8 µM; in the experiment with HOP-62 NSCLC it was 18.9 µM; with DU-145 prostate it was 10.6 µM. Also, the TGI was 15 µM in the experiment on SN12C renal and 6.02 µM in the experiment with RPMI-8226 leukemia.

`Cc1ccc2oc(=O)cc(C3c4ccc([nH]4)C(c4cc(=O)oc5ccc(C)cc45)c4ccc([nH]4)C(c4cc(=O)oc5ccc(C)cc45)c4ccc([nH]4)C(c4cc(=O)oc5ccc(C)cc45)c4ccc3[nH]4)c2c1` (stereo not given): the GI50 in the experiment with UO-31 renal is 0.0364 µM; with 786-0 renal, 0.0288 µM; with OVCAR-4 ovarian it was 0.104 µM; in the experiment with HOP-62 NSCLC it was 0.0463 µM; in the experiment on DU-145 prostate it was 0.0391 µM; with SN12C renal, 0.0586 µM. Also, the GI50 was 0.0516 µM with RPMI-8226 leukemia and 0.212 µM with NCI-H522 lung. Moreover, the TGI with UO-31 renal turned out to be 1.19 µM; in the experiment on 786-0 renal, 0.0937 µM; in the experiment on OVCAR-4 ovarian it was 3.81 µM; with HOP-62 NSCLC, 1.27 µM; in the experiment with DU-145 prostate, 1.8 µM; with SN12C renal, 1.74 µM. The TGI in the experiment on RPMI-8226 leukemia turned out to be 0.578 µM; in the experiment with NCI-H522 lung it was 0.796 µM.

Consider `COc1ccc(NCc2c(O)ccc3ccccc23)cc1`, for which the TGI in the experiment on UO-31 renal was over 100 µM; in the experiment on 786-0 renal, 32 µM; in the experiment with MDA-MB-435, over 100 µM; in the experiment with OVCAR-4 ovarian, over 100 µM; in the experiment with HOP-62 NSCLC, over 100 µM; with DU-145 prostate, over 100 µM. Further, the TGI is over 100 µM with SN12C renal, 63.6 µM with RPMI-8226 leukemia and 28 µM in the experiment on NCI-H522 lung.

For the origin of these results see PubChem BioAssay (NCI).
